# Tested on: P. acnes
# Experiment: Agar dilution method, growth of P. acnes and MIC, combinations with a fatty acid spike
# Assay type: cell-based, Propionibacterium acnes
# Design: key to Growth Index Plate 1 / Growth Index Plate 2 / Growth Index Plate 3 / Growth Index Avg: +++: confluent growth (comparable to control); ++: less confluent growth; +: marked reduction in growth to multiple tiny, single colonies; −: no growth present
# [1] = compound at 0.2 mg/mL + 0.01 mg/mL 15-HETrE
# [2] = compound at 0.2 mg/mL + 0.05 mg/mL 15-HETrE
# [3] = compound at 0.2 mg/mL + 0.05 mg/mL 15-OHEPA
# [4] = compound at 0.2 mg/mL + 0.1 mg/mL 15-OHEPA
# [5] = compound at 0.2 mg/mL + 0.4 mg/mL dGLA
# [6] = compound at 0.2 mg/mL + 1.0 mg/mL dGLA
# [7] = compound at 0.4 mg/mL + 0.01 mg/mL 15-HETrE
# [8] = compound at 0.4 mg/mL + 0.05 mg/mL 15-HETrE
# [9] = compound at 0.4 mg/mL + 0.05 mg/mL 15-OHEPA
# [10] = compound at 0.4 mg/mL + 0.1 mg/mL 15-OHEPA
# [11] = compound at 0.4 mg/mL + 0.4 mg/mL dGLA
# [12] = compound at 0.4 mg/mL + 1.0 mg/mL dGLA
# [13] = compound at 0.6 mg/mL + 0.01 mg/mL 15-HETrE
# [14] = compound at 0.6 mg/mL + 0.05 mg/mL 15-HETrE
# [15] = compound at 0.6 mg/mL + 0.05 mg/mL 15-OHEPA
# [16] = compound at 0.6 mg/mL + 0.1 mg/mL 15-OHEPA
# [17] = compound at 0.6 mg/mL + 0.4 mg/mL dGLA
# [18] = compound at 0.6 mg/mL + 1.0 mg/mL dGLA
# [19] = compound at 0.7 mg/mL + 0.01 mg/mL 15-HETrE
# [20] = compound at 0.7 mg/mL + 0.05 mg/mL 15-HETrE
# [21] = compound at 0.7 mg/mL + 0.05 mg/mL 15-OHEPA
# [22] = compound at 0.7 mg/mL + 0.1 mg/mL 15-OHEPA
# [23] = compound at 0.8 mg/mL + 0.01 mg/mL 15-HETrE
# [24] = compound at 0.8 mg/mL + 0.05 mg/mL 15-HETrE
# [25] = compound at 0.8 mg/mL + 0.05 mg/mL 15-OHEPA
# [26] = compound at 0.8 mg/mL + 0.1 mg/mL 15-OHEPA
# [27] = compound at 0.8 mg/mL + 0.4 mg/mL dGLA
# [28] = compound at 0.8 mg/mL + 1.0 mg/mL dGLA
# [29] = compound at 1.0 mg/mL + 0.4 mg/mL dGLA
# [30] = compound at 1.0 mg/mL + 1.0 mg/mL dGLA
smiles,measurement,setting,value
"COc1ccc(-c2ccc3cc(C(=O)O)ccc3c2)cc1C12CC3CC(CC(C3)C1)C2 [Adapalene, 6-[3-(1-adamantyl)-4-methoxyphenyl]-2-naphthoic acid]",Growth Index Avg,[1],+++
same,Growth Index Plate 1,[1],+++
same,Growth Index Plate 2,[1],+++
same,Growth Index Plate 3,[1],+++
same,Growth Index Avg,[2],−
same,Growth Index Plate 1,[2],−
same,Growth Index Plate 2,[2],−
same,Growth Index Plate 3,[2],−
same,Growth Index Avg,[3],+++
same,Growth Index Plate 1,[3],+++
same,Growth Index Plate 2,[3],+++
same,Growth Index Plate 3,[3],+++
same,Growth Index Avg,[4],−
same,Growth Index Plate 1,[4],−
same,Growth Index Plate 2,[4],−
same,Growth Index Plate 3,[4],−
same,Growth Index Avg,[5],+++
same,Growth Index Plate 1,[5],+++
same,Growth Index Plate 2,[5],+++
same,Growth Index Plate 3,[5],+++
same,Growth Index Avg,[6],+++
same,Growth Index Plate 1,[6],+++
same,Growth Index Plate 2,[6],+++
same,Growth Index Plate 3,[6],+++
same,Growth Index Avg,[7],+++
same,Growth Index Plate 1,[7],+++
same,Growth Index Plate 2,[7],+++
same,Growth Index Plate 3,[7],+++
same,Growth Index Avg,[8],−
same,Growth Index Plate 1,[8],−
same,Growth Index Plate 2,[8],−
same,Growth Index Plate 3,[8],−
same,Growth Index Avg,[9],+++
same,Growth Index Plate 1,[9],+++
same,Growth Index Plate 2,[9],+++
same,Growth Index Plate 3,[9],+++
same,Growth Index Avg,[10],−
same,Growth Index Plate 1,[10],−
same,Growth Index Plate 2,[10],−
same,Growth Index Plate 3,[10],−
same,Growth Index Avg,[11],+++
same,Growth Index Plate 1,[11],+++
same,Growth Index Plate 2,[11],+++
same,Growth Index Plate 3,[11],+++
same,Growth Index Avg,[12],+++
same,Growth Index Plate 1,[12],+++
same,Growth Index Plate 2,[12],+++
same,Growth Index Plate 3,[12],+++
same,Growth Index Avg,[13],++
same,Growth Index Plate 1,[13],++
same,Growth Index Plate 2,[13],++
same,Growth Index Plate 3,[13],++
same,Growth Index Avg,[14],−
same,Growth Index Plate 1,[14],−
same,Growth Index Plate 2,[14],−
same,Growth Index Plate 3,[14],−
same,Growth Index Avg,[15],+++
same,Growth Index Plate 1,[15],++
same,Growth Index Plate 2,[15],+++
same,Growth Index Plate 3,[15],+++
same,Growth Index Avg,[16],−
same,Growth Index Plate 1,[16],−
same,Growth Index Plate 2,[16],−
same,Growth Index Plate 3,[16],−
same,Growth Index Avg,[17],+++
same,Growth Index Plate 1,[17],+++
same,Growth Index Plate 2,[17],+++
same,Growth Index Plate 3,[17],+++
same,Growth Index Avg,[18],+++
same,Growth Index Plate 1,[18],+++
same,Growth Index Plate 2,[18],+++
same,Growth Index Plate 3,[18],+++
same,Growth Index Avg,[19],+
same,Growth Index Plate 1,[19],+
same,Growth Index Plate 2,[19],+
same,Growth Index Plate 3,[19],+
same,Growth Index Avg,[20],−
same,Growth Index Plate 1,[20],−
same,Growth Index Plate 2,[20],−
same,Growth Index Plate 3,[20],−
same,Growth Index Avg,[21],++
same,Growth Index Plate 1,[21],++
same,Growth Index Plate 2,[21],++
same,Growth Index Plate 3,[21],++
same,Growth Index Avg,[22],−
same,Growth Index Plate 1,[22],−
same,Growth Index Plate 2,[22],−
same,Growth Index Plate 3,[22],−
same,Growth Index Avg,[23],−
same,Growth Index Plate 1,[23],+
same,Growth Index Plate 2,[23],−
same,Growth Index Plate 3,[23],−
same,Growth Index Avg,[24],−
same,Growth Index Plate 1,[24],−
same,Growth Index Plate 2,[24],−
same,Growth Index Plate 3,[24],−
same,Growth Index Avg,[25],++
same,Growth Index Plate 1,[25],++
same,Growth Index Plate 2,[25],++
same,Growth Index Plate 3,[25],+
same,Growth Index Avg,[26],−
same,Growth Index Plate 1,[26],−
same,Growth Index Plate 2,[26],−
same,Growth Index Plate 3,[26],−
same,Growth Index Avg,[27],+++
same,Growth Index Plate 1,[27],+++
same,Growth Index Plate 2,[27],+++
same,Growth Index Plate 3,[27],+++
same,Growth Index Avg,[28],+++
same,Growth Index Plate 1,[28],+++
same,Growth Index Plate 2,[28],+++
same,Growth Index Plate 3,[28],+++
same,Growth Index Avg,[29],+++
same,Growth Index Plate 1,[29],+++
same,Growth Index Plate 2,[29],+++
same,Growth Index Plate 3,[29],+++
same,Growth Index Avg,[30],+++
same,Growth Index Plate 1,[30],+++
same,Growth Index Plate 2,[30],+++
same,Growth Index Plate 3,[30],+++
same,"growth of P. Acnes in combination with 15-OHEPA, compared with 15 OHEPA used alone",in combination with 15-OHEPA,did not reduce the growth
same,"growth of P. Acnes in combination with DGLA, compared with DGLA used alone",in combination with DGLA,did not reduce the growth
